Results reported in PubChem BioAssay AID1963869 (Molecular Pharmacology Branch, DTP, NCI, 2024).

Test system: KRAS patient-derived spheroids with HUVEC/MSC, viability
Assay: Anticancer human tumor 323965-272-R-J2-PDC patient-derived pancreatic carcinoma cell line growth inhibition [KRAS2]
Settings: for IC50: curve of first compound; for viability, T/C: stronger effect = lower value
Excerpt: Multicellular complex tumor spheroid response to RAS pathway inhibitors in combination with a targeted agents in patient-derived cell lines with oncogenic KRAS variants from multiple cancer types
A high-throughput screen of multi-cell type tumor spheroids was designed to identify active combinations of targeted small molecules and KRAS pathway inhibitors. Complex spheroids include a stromal component modeled by human endothelial cells (HUVEC) and fibroblasts modeled by human mesenchymal stem cells (MSCs). The concentration ranges selected for each drug and investigational agent were based upon clinically achievable concentrations if the clinical Cmax of the agent was known.
Compounds. The drugs and investigational agents: BI-3406 (NSC825286), BAY-293 (NSC824723), batoprotafib (TNO155; NSC825523), sotorasib (AMG 510; NSC818433), MRTX1257 (NSC819558), elimusertib (BAY 1895344; NSC800525), molibresib (GSK525762; NSC774829), temuterkib (LY3214996; NSC803410), venetoclax (NSC766270), alisertib (NSC759677), olaparib (NSC753686), talazoparib (NSC767125), erdafitinib (NSC781556), ipatasertib (NSC767898), cabozantinib (NSC761068), nintedanib (NSC756659), abemaciclib (NSC768073), docetaxel (NSC628503), trametinib (NSC758246), and sapanisertib (NSC764658) were obtained from the National Cancer Institute (NCI) Developmental Therapeutics Program Chemical Repository. The FDA-approved anticancer drug set is available from the Developmental Therapeutics Program. […] The stock solutions were prepared in dimethyl sulfoxide (DMSO, Sigma-Aldrich, St. Louis, MO, cat. D2650) at 800-fold the tested concentration and stored at -70 degrees C prior to their use. All drugs and investigational agents were tested over a range starting from a high concentration at or near the clinical Cmax and decreasing in half-log increments. If the clinical Cmax for an agent had not been determined, the highest concentration tested was 10 microM.
Cell Culture. All cells were maintained in an incubator at 37 degrees C and 5% CO2 with 95% humidity. The PDC lines were cultured according to standard operating procedures established by the NCI PDMR (https://pdmr.cancer.gov/sops/default.htm). Briefly, all PDCs were thawed and cultured in Matrigel-coated flasks prepared with a working solution of 1X Ham's F-12 nutrient mix, without supplementation (Invitrogen, Waltham, MA, cat. 11765054), 100 U/mL penicillin-streptomycin (Invitrogen, cat. 15140122), and 2.5% Matrigel (Corning Inc., Corning, NY, cat. 354248) for the first three passages. All PDCs were cultured in complete DMEM/F-12 media containing advanced DMEM/F-12 (Invitrogen, cat. 12634028), 4.9% defined fetal bovine serum, heat inactivated (HyClone Laboratories Inc., Logan, UT, cat. SH30070.03HI), 389 ng/mL hydrocortisone (Sigma-Aldrich, cat. H4001), 9.7 ng/mL human EGF recombinant protein (Invitrogen, cat. PHG0313), 23.4 microg/mL adenine (Sigma-Aldrich, cat. A2786), 97.3 U/mL penicillin-streptomycin (Invitrogen, cat. 15140122), 1.9 mM L-glutamine (Invitrogen, cat. 25030081), and 9.7 microM Y-27632 dihydrochloride (Tocris Bioscience, Bristol, United Kingdom, cat. 1254). The PDCs were cultured in complete DMEM/F12 media without 9.7 microM Y-27632 dihydrochloride for at least two passages prior to the screen. The established cell line HOP-62 was cultured in RPMI 1640 medium, HEPES (Invitrogen, cat. 22400105) with 10% defined fetal bovine serum (HyClone Laboratories Inc., cat. SH30070.03) and 2 mM L-glutamine (Invitrogen, cat. 25030081). The pooled donor HUVEC were cultured in endothelial cell growth medium 2 (PromoCell, Heidelberg, Germany, cat. C-22011) and the hMSC were cultured in mesenchymal stem cell growth medium 2 (PromoCell, cat. C-28009). For all experiments, HUVEC and hMSC were used at passages </=5, while the malignant cell lines were used at passages </=15. […]
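Further: spheroids exposed to agents for 7 days.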
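Wherever viability, T/C is given: 100% = DMSO vehicle control viability.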

CC(=O)OC12COC1CC(O)C1(C)C(=O)C(O)C3=C(C)C(OC(=O)C(O)C(NC(=O)OC(C)(C)C)c4ccccc4)CC(O)(C(OC(=O)c4ccccc4)C21)C3(C)C (stereo not given) + C=CC(=O)N1CCN(c2nc(=O)n(-c3c(C)ccnc3C(C)C)c3nc(-c4c(O)cccc4F)c(F)cc23)C(C)C1
IC50 (second compound 0.1 µM): < 10 nM
IC50 (second compound 0.316 µM): < 10 nM
IC50 (second compound 1 µM): < 10 nM
IC50 (second compound 3.16 µM): < 10 nM
IC50 (second compound 10 µM): < 10 nM
viability, T/C (second compound 0.1 µM, first compound 0.01 µM): 22.7%
viability, T/C (second compound 0.1 µM, first compound 0.0316 µM): 21.7%
viability, T/C (second compound 0.1 µM, first compound 0.1 µM): 19.9%
viability, T/C (second compound 0.1 µM, first compound 0.316 µM): 19.2%
viability, T/C (second compound 0.1 µM, first compound 1 µM): 18.9%
viability, T/C (second compound 0.1 µM, first compound 3.16 µM): 22.2%
viability, T/C (second compound 0.316 µM, first compound 0.01 µM): 21.9%
viability, T/C (second compound 0.316 µM, first compound 0.0316 µM): 21.5%
viability, T/C (second compound 0.316 µM, first compound 0.1 µM): 21.6%
viability, T/C (second compound 0.316 µM, first compound 0.316 µM): 19.4%
viability, T/C (second compound 0.316 µM, first compound 1 µM): 20.9%
viability, T/C (second compound 0.316 µM, first compound 3.16 µM): 21.1%
viability, T/C (second compound 1 µM, first compound 0.01 µM): 21.3%
viability, T/C (second compound 1 µM, first compound 0.0316 µM): 19.2%
viability, T/C (second compound 1 µM, first compound 0.1 µM): 19.6%
viability, T/C (second compound 1 µM, first compound 0.316 µM): 17.4%
viability, T/C (second compound 1 µM, first compound 1 µM): 18.7%
viability, T/C (second compound 1 µM, first compound 3.16 µM): 19.7%
viability, T/C (second compound 3.16 µM, first compound 0.01 µM): 19.7%
viability, T/C (second compound 3.16 µM, first compound 0.0316 µM): 21.9%
viability, T/C (second compound 3.16 µM, first compound 0.1 µM): 17.6%
viability, T/C (second compound 3.16 µM, first compound 0.316 µM): 19.6%
viability, T/C (second compound 3.16 µM, first compound 1 µM): 18.9%
viability, T/C (second compound 3.16 µM, first compound 3.16 µM): 18.5%
viability, T/C (second compound 10 µM, first compound 0.01 µM): 21.3%
viability, T/C (second compound 10 µM, first compound 0.0316 µM): 19.6%
viability, T/C (second compound 10 µM, first compound 0.1 µM): 19.8%
viability, T/C (second compound 10 µM, first compound 0.316 µM): 15.6%
viability, T/C (second compound 10 µM, first compound 1 µM): 16%
viability, T/C (second compound 10 µM, first compound 3.16 µM): 16.7%
